Results as given in ChEMBL document CHEMBL5625165, “Nine-valent oleanolic acid conjugates as potent inhibitors blocking the entry of influenza A virus” (Eur J Med Chem, 2023).
Calls of active or inactive are those of the source. The calls are words filed in the database; no cut-off is given here.

How the values were obtained:
[1] = Selectivity index, ratio of CC50 for cytotoxicity against dog MDCK cells assessed as reduction in cell viability to IC50 for antiviral activity against influenza A virus A/WSN/33(H1N1) infected in MDCK cells assessed as inhibition of viral-induced cytopathic effect; assay type: toxicity, cell-based; details: read-out: Ratio CC50/IC50
[2] = Cytotoxicity against dog MDCK cells assessed as reduction in cell viability incubated for 48 hrs by celltiter-glo assay; assay type: toxicity, cell-based, Canis lupus familiaris
[3] = test system: Erythrocyte; experiment: Inhibition of hemagglutination in chicken RBC cells infected with Influenza A virus A/WSN/33 (H1N1) assessed as reduction in virus-induced agglutination of erythrocytes at 0.24 to 15 uM incubated for 24 mins; assay type: functional, cell-based; details: Gallus gallus, dose 0.24-15 µM
[4] = test system: Influenza A virus; experiment: Antiviral activity against influenza A virus A/WSN/33(H1N1) infected in MDCK cells assessed as reduction in M2 expression measured upto 2 hrs by time of addition assay; assay type: functional; parameters: scale not given: the % may be the effect or the level left
[5] = test system: Influenza A virus; experiment: Antiviral activity against influenza A virus A/WSN/33(H1N1) infected in MDCK cells assessed as inhibition of viral growth at 30 uM incubated for 48 hrs by microscopic analysis; assay type: functional; parameters: scale not given: the % may be the effect or the level left
[6] = Cytotoxicity against dog MDCK cells assessed as cell viability at 30 uM incubated for 48 hrs by celltiter-glo assay; assay type: toxicity, cell-based, Canis lupus familiaris; details: read-out: Activity
[7] = test system: Influenza A virus; experiment: Antiviral activity against influenza A virus B/Sichuan/531/2018 (Victoria) infected in MDCK cells assessed as inhibition of viral growth; assay type: functional, organism-based
[8] = Selectivity index, ratio of CC50 for cytotoxicity against dog MDCK cells assessed as reduction in cell viability to IC50 for antiviral activity against influenza A virus B/Sichuan/531/2018 (Victoria) infected in MDCK cells assessed as inhibition of viral growth; assay type: toxicity, cell-based; details: read-out: Ratio CC50/IC50
[9] = Binding affinity to influenza A virus H1N1 (A/michigan/45/2015) assessed as dissociation constant by SPR analysis
[10] = test system: Influenza A virus; experiment: Antiviral activity against influenza A virus A/WSN/33(H1N1) infected in MDCK cells assessed as inhibition of viral-induced cytopathic effect incubated for 48 hrs by microscopic analysis; assay type: functional, organism-based
[11] = test system: Influenza A virus; experiment: Antiviral activity against influenza A virus A/WSN/33(H1N1) infected in MDCK cells assessed as inhibition of virus-induced cytopathic effect at 30 uM incubated for 48 hrs by microscopic analysis; assay type: functional, organism-based
[12] = test system: Influenza A virus; experiment: Antiviral activity against influenza A virus B/Darwin/58/2019 (Yamagata) infected in MDCK cells assessed as inhibition of viral growth; assay type: functional, organism-based
[13] = Selectivity index, ratio of CC50 for cytotoxicity against dog MDCK cells assessed as reduction in cell viability to IC50 for antiviral activity against influenza A virus B/Darwin/58/2019 (Yamagata) infected in MDCK cells assessed as inhibition of viral growth; assay type: toxicity, cell-based; details: read-out: Ratio CC50/IC50
[14] = test system: Erythrocyte; experiment: Hemolytic activity in rabbit RBC assessed as hemolysis at 300 uM incubated for 2 hr by spectrophotometry analysis; assay type: toxicity, cell-based, Oryctolagus cuniculus

Row | SMILES | selectivity ratio [1] | CC50 at 48 h [2] [µM] | inhibition [3] | Activity [4] [%] | Activity [5] [%] | viability at 48 h, 30 µM [6] [%] | IC50 [7] [µM] | selectivity ratio [8] | Kd [9] [µM] | IC50 [10] [µM] | Activity [11] | IC50 [12] [µM] | selectivity ratio [13] | Activity [14]
1 | CC1(C)CC[C@]2(C(=O)NCCOCCOCCOCCn3cc(COc4cc(C(=O)NCCOCCOCCOCCn5cc(COc6cc(OCc7cn(CCOCCOCCOCCNC(=O)c8cc(OCc9cn(CCOCCOCCOCCNC(=O)[C@]%10%11CCC(C)(C)C[C@H]%10C%10=CC[C@@H]%12[C@@]%13(C)CC[C@H](O)C(C)(C)[C@@H]%13CC[C@@]%12(C)[C@]%10(C)CC%11)nn9)c(OCc9cn(CCOCCOCCOCCNC(=O)[C@]%10%11CCC(C)(C)C[C@H]%10C%10=CC[C@@H]%12[C@@]%13(C)CC[C@H](O)C(C)(C)[C@@H]%13CC[C@@]%12(C)[C@]%10(C)CC%11)nn9)c(OCc9cn(CCOCCOCCOCCNC(=O)[C@]%10%11CCC(C)(C)C[C@H]%10C%10=CC[C@@H]%12[C@@]%13(C)CC[C@H](O)C(C)(C)[C@@H]%13CC[C@@]%12(C)[C@]%10(C)CC%11)nn9)c8)nn7)cc(OCc7cn(CCOCCOCCOCCNC(=O)c8cc(OCc9cn(CCOCCOCCOCCNC(=O)[C@]%10%11CCC(C)(C)C[C@H]%10C%10=CC[C@@H]%12[C@@]%13(C)CC[C@H](O)C(C)(C)[C@@H]%13CC[C@@]%12(C)[C@]%10(C)CC%11)nn9)c(OCc9cn(CCOCCOCCOCCNC(=O)[C@]%10%11CCC(C)(C)C[C@H]%10C%10=CC[C@@H]%12[C@@]%13(C)CC[C@H](O)C(C)(C)[C@@H]%13CC[C@@]%12(C)[C@]%10(C)CC%11)nn9)c(OCc9cn(CCOCCOCCOCCNC(=O)[C@]%10%11CCC(C)(C)C[C@H]%10C%10=CC[C@@H]%12[C@@]%13(C)CC[C@H](O)C(C)(C)[C@@H]%13CC[C@@]%12(C)[C@]%10(C)CC%11)nn9)c8)nn7)c6)nn5)cc(OCc5cn(CCOCCOCCOCCNC(=O)[C@]67CCC(C)(C)C[C@H]6C6=CC[C@@H]8[C@@]9(C)CC[C@H](O)C(C)(C)[C@@H]9CC[C@@]8(C)[C@]6(C)CC7)nn5)c4OCc4cn(CCOCCOCCOCCNC(=O)[C@]56CCC(C)(C)C[C@H]5C5=CC[C@@H]7[C@@]8(C)CC[C@H](O)C(C)(C)[C@@H]8CC[C@@]7(C)[C@]5(C)CC6)nn4)nn3)CC[C@]3(C)C(=CC[C@@H]4[C@@]5(C)CC[C@H](O)C(C)(C)[C@@H]5CC[C@]43C)[C@@H]2C1 | > 5.74 | > 30 | Active | >90 | 76.88 | 100 | 33.5 | > 0.9 | 12.9 | 5.23 | Active | – | – | –
2 | CC1(C)CC[C@]2(C(=O)NCCOCCn3cc(COc4cc(C(=O)NCCNC(=O)OCCn5cc(COc6cc(OCc7cn(CCOC(=O)NCCNC(=O)c8cc(OCc9cn(CCOCCNC(=O)[C@]%10%11CCC(C)(C)C[C@H]%10C%10=CC[C@@H]%12[C@@]%13(C)CC[C@H](O)C(C)(C)[C@@H]%13CC[C@@]%12(C)[C@]%10(C)CC%11)nn9)c(OCc9cn(CCOCCNC(=O)[C@]%10%11CCC(C)(C)C[C@H]%10C%10=CC[C@@H]%12[C@@]%13(C)CC[C@H](O)C(C)(C)[C@@H]%13CC[C@@]%12(C)[C@]%10(C)CC%11)nn9)c(OCc9cn(CCOCCNC(=O)[C@]%10%11CCC(C)(C)C[C@H]%10C%10=CC[C@@H]%12[C@@]%13(C)CC[C@H](O)C(C)(C)[C@@H]%13CC[C@@]%12(C)[C@]%10(C)CC%11)nn9)c8)nn7)cc(OCc7cn(CCOC(=O)NCCNC(=O)c8cc(OCc9cn(CCOCCNC(=O)[C@]%10%11CCC(C)(C)C[C@H]%10C%10=CC[C@@H]%12[C@@]%13(C)CC[C@H](O)C(C)(C)[C@@H]%13CC[C@@]%12(C)[C@]%10(C)CC%11)nn9)c(OCc9cn(CCOCCNC(=O)[C@]%10%11CCC(C)(C)C[C@H]%10C%10=CC[C@@H]%12[C@@]%13(C)CC[C@H](O)C(C)(C)[C@@H]%13CC[C@@]%12(C)[C@]%10(C)CC%11)nn9)c(OCc9cn(CCOCCNC(=O)[C@]%10%11CCC(C)(C)C[C@H]%10C%10=CC[C@@H]%12[C@@]%13(C)CC[C@H](O)C(C)(C)[C@@H]%13CC[C@@]%12(C)[C@]%10(C)CC%11)nn9)c8)nn7)c6)nn5)cc(OCc5cn(CCOCCNC(=O)[C@]67CCC(C)(C)C[C@H]6C6=CC[C@@H]8[C@@]9(C)CC[C@H](O)C(C)(C)[C@@H]9CC[C@@]8(C)[C@]6(C)CC7)nn5)c4OCc4cn(CCOCCNC(=O)[C@]56CCC(C)(C)C[C@H]5C5=CC[C@@H]7[C@@]8(C)CC[C@H](O)C(C)(C)[C@@H]8CC[C@@]7(C)[C@]5(C)CC6)nn4)nn3)CC[C@]3(C)C(=CC[C@@H]4[C@@]5(C)CC[C@H](O)C(C)(C)[C@@H]5CC[C@]43C)[C@@H]2C1 | > 3.78 | > 30 | Active | >90 | 100 | 96.5 | 27.2 | > 1.1 | – | 7.93 | – | 9.38 | > 3.2 | Non-Toxic
